Usually IC50 stands for the concentration at which inhibition is half-maximal. Lower therefore signals inhibition by little substance.

The target of assay [1] is T1, EfpA (Mycolicibacterium smegmatis, UniProt A0QVL8).
T1 construct: gene MSMEG_2619; native efflux pump in intact M. smegmatis cells; ethidium bromide efflux read-out
Nature of the assay: ethidium bromide efflux (fluorescence) in M. smegmatis cells. It counts as cell-based.

For assay [2], the target named is Mtb's efpA homolog (Mycobacterium tuberculosis, UniProt P9WJY5). Conditions: high-affinity interaction lost on efpA deletion.
Assay [3] concerns the target T2, Mtb DNA gyrase (Mycobacterium tuberculosis, UniProt P9WG45+P9WG47).
T2 construct: gene gyrA; in vitro DNA gyrase; source details in supplement
Nature of the assay: DNA supercoiling/decatenation inhibition, agarose gel. The format is biochemical.

T2 sequence (P9WG45 whole entry): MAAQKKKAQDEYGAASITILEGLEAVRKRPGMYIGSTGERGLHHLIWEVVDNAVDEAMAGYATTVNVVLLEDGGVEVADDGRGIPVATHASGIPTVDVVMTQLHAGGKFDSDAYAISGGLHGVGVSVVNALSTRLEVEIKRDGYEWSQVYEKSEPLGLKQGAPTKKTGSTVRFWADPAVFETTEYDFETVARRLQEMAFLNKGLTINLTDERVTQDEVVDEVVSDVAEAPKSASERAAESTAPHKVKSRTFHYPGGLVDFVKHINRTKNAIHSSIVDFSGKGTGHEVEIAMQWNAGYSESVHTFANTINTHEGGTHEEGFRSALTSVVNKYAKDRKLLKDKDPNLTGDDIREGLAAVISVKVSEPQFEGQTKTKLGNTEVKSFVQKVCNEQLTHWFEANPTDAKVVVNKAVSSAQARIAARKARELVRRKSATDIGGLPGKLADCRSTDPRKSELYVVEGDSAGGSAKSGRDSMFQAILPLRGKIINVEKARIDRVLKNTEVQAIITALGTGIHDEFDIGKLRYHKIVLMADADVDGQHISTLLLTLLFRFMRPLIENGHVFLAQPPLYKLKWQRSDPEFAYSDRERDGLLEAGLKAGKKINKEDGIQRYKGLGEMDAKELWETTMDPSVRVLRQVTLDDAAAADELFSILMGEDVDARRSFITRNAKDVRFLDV
T2 sequence (P9WG47 2-838): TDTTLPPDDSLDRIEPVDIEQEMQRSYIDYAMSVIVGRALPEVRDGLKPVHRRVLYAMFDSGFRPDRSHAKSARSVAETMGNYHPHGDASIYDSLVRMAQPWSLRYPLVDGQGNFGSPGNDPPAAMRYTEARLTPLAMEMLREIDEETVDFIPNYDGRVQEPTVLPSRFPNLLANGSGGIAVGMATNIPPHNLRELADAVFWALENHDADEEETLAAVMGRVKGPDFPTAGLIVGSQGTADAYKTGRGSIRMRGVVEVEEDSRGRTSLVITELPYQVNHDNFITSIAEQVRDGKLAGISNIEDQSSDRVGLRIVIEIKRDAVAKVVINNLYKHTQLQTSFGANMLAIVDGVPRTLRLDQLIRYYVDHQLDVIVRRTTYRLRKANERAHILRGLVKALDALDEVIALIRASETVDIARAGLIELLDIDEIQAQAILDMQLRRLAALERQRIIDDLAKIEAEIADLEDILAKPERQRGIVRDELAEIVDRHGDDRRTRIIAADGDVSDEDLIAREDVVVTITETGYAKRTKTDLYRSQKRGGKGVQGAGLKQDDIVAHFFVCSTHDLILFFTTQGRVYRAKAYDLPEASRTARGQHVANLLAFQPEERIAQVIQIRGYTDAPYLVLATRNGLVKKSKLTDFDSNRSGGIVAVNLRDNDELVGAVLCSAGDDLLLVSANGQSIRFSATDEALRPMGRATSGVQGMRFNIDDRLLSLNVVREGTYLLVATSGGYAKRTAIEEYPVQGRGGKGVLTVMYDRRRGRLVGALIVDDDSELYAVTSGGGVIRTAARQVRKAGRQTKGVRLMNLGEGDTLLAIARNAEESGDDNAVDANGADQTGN
Chain of Mtb's efpA homolog (P9WJY5 whole entry): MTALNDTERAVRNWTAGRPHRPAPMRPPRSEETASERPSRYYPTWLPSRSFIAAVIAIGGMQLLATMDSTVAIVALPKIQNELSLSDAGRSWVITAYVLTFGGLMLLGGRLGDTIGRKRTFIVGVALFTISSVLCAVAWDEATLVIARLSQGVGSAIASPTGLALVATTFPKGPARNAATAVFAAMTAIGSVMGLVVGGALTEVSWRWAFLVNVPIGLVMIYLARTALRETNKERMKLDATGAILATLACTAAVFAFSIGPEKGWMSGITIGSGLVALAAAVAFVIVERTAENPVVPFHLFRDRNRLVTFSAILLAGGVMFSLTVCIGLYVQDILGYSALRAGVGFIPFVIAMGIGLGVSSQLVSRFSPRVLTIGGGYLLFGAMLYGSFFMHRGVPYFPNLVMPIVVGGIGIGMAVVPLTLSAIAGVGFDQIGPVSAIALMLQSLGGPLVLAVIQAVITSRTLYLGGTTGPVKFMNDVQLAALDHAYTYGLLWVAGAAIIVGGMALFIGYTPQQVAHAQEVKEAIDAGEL

As to `CC(C)=CC1C(C(=O)Nc2ccc(Br)cn2)C1(C)C` (mixture of isomers) [BRD-8000], in assay [1], the IC50 was 38 µM.
The same measure, in the same setting: in the case of `CC(C)=C[C@@H]1[C@@H](C(=O)Nc2cccc(Br)n2)C1(C)C` [(R,R)-trans isomer of BRD-8000.2] it was 500 µM.
As to `CC(C)=C[C@H]1[C@H](C(=O)Nc2cccc(Br)n2)C1(C)C` [BRD-8000.2], the IC50 in assay [1] worked out at 15 µM. In addition, the “interaction with M. smegmatis efpA deletion strain complemented with Mtb efpA” value in assay [2] is on record as “This highaffinity interaction is restored by episomal complementation of Mtb’s efpA homolog”.
Consider `O=C1c2ccccc2-n2c1nc1ccccc1c2=O` [tryptanthrin], for which the “DNA supercoiling/decatenation inhibition, agarose gel” value in assay [3] is “we validated it to be a DNA gyrase inhibitor”.

For the origin of these results see publication doi:10.1101/396440v2, “Large-scale chemical-genetics yields new Mycobacterium tuberculosis inhibitor classes” (biorxiv, 2019).
